From ChEMBL document CHEMBL2203162, “Triazole pyrimidine nucleosides as inhibitors of Ribonuclease A. Synthesis, biochemical, and structural evaluation” (Bioorg Med Chem, 2012) come the findings set out here.

Assay [1] in a line: Competitive inhibition of bovine pancreatic RNase A type 12-A assessed as degradation of yeast tRNA preincubated for 10 mins before addition of the enzyme by double reciprocal plot analysis. Also noted: species or system Bos taurus.
The next assay has as its target T1, Ribonuclease pancreatic (Bos taurus, UniProt P61823).
T1 sequence (P61823 whole entry): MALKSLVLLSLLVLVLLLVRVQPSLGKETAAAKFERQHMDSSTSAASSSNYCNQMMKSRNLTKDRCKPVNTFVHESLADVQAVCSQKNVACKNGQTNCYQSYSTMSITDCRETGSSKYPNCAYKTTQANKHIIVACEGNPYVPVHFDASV
Description: Inhibition of bovine pancreatic RNase A.

Assay [2] is described as follows: Competitive inhibition of bovine pancreatic RNase A type 12-A by Dixon plot analysis. Further details: species or system Bos taurus.
The target in assay [3] is T2, Non-secretory ribonuclease (Homo sapiens, UniProt P10153).
T2 sequence (P10153 whole entry): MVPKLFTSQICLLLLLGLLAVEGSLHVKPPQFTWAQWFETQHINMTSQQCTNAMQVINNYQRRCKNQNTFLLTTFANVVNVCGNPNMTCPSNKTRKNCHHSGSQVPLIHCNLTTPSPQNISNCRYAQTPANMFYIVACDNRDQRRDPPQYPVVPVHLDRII
The assay can be described thus: Inhibition of EDN.

Assay [4] deals with Ribonuclease pancreatic (Bos taurus) (UniProt P61823). The assay can be described thus: Inhibition of RNase A.
Another assay concerns the target Angiogenin (Homo sapiens, UniProt P03950). The assay can be described thus: Inhibition of ANG.
The next assay is filed under the species Bos taurus. The assay can be described thus: Competitive inhibition of bovine pancreatic RNase A type 12-A assessed as degradation of yeast tRNA at 50 uM preincubated for 10 mins before addition of the enzyme by double reciprocal plot analysis.

SMILES strings stand for the structures.

Angiogenin, sequence (P03950 whole entry): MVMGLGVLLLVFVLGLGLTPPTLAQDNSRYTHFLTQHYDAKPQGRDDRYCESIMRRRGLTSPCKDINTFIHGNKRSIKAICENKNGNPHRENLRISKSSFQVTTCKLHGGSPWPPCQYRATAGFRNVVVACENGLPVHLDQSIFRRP

Consider `Cc1cn([C@@H]2O[C@H](CO)[C@@H](O)[C@H]2O)c(=O)[nH]c1=O`, for which the Ki in assay [1] came out at 44.1 µM.
In turn, `O=c1ccn(Cc2cn([C@@H]3O[C@H](CO)[C@@H](O)[C@H]3O)nn2)c(=O)[nH]1` had a Ki at Ribonuclease pancreatic of 0.24 µM.
In turn, `O=c1ccn([C@@H]2O[C@H](COP(=O)(O)O)[C@@H](O)[C@H]2O)c(=O)[nH]1` came in with a Ki in assay [2] of 4000 µM.
Consider `O=c1[nH]c(=O)n([C@@H]2O[C@H](CO)[C@@H](O)[C@H]2O)cc1Br`, for which, in assay [1], the Ki came out at 69.1 µM.
On the same count and under the same terms, with `O=c1[nH]c(=O)n([C@@H]2O[C@H](CO)[C@@H](O)[C@H]2O)cc1Cl` the figure was 44.5 µM.
Take `Nc1ncnc2c1ncn2[C@@H]1O[C@H](COP(=O)(O)OP(=O)(O)O[C@H]2C[C@H](n3ccc(=O)[nH]c3=O)O[C@@H]2COP(=O)(O)O)[C@@H](OP(=O)(O)O)[C@H]1O`: the Ki in assay [3] came out at 0.18 µM; in assay [4], 0.027 µM; at Angiogenin it was 360 µM.
As to `O=c1ccn([C@@H]2O[C@H](COP(=O)(O)OP(=O)(O)O)[C@@H](O)[C@H]2O)c(=O)[nH]1` [URIDINE_DIPHOSPHATE], the Ki in assay [2] was 650 µM.
`O=c1[nH]c(=O)n(Cc2cn([C@@H]3O[C@H](CO)[C@@H](O)[C@H]3O)nn2)cc1Cl`: the Ki in assay [1] was found to be 94.8 µM.
On to `O=c1[nH]c(=O)n(Cc2cn([C@@H]3O[C@H](CO)[C@@H](O)[C@H]3O)nn2)cc1Br`, for which, in the assay listed under Bos taurus, the inhibition is 20%.
In the case of `O=c1ccn([C@@H]2O[C@H](CO)[C@@H](O)[C@H]2O)c(=O)[nH]1` [URIDINE], the Ki in assay [1] came to 28.5 µM.
For the compound `O=c1[nH]c(=O)n([C@@H]2O[C@H](CO)[C@@H](O)[C@H]2O)cc1F` [5-FLUOROURIDINE], the Ki in assay [1] came out at 33.6 µM.
